Like-named read-outs stand apart in the source and are kept apart here.
What was measured:
SF-539 [1] = system: SF-539
UACC-257 [2] = system: UACC-257
DU-145 [3] = system: DU-145
HOP-62 = test: cells; settings: Homo sapiens
SF-539 [4] = test: cells; settings: Homo sapiens
U251 = test: cells; settings: Homo sapiens
UACC-257 [5] = test: cells; settings: Homo sapiens
A498 = test: cells; settings: Homo sapiens
CAKI-1 = test: cells; settings: Homo sapiens
RXF 393 = test: cells; settings: Homo sapiens
PC-3 = test: cells; settings: Homo sapiens
DU-145 [6] = test: cells; settings: Homo sapiens
[7] = MOLT-4, log10 concentration −4.0
[8] = MOLT-4, log10 concentration −6.0
[9] = MOLT-4, log10 concentration −7.0
[10] = MOLT-4, log10 concentration −8.0
[11] = NCI-H23, log10 concentration −4.0
[12] = NCI-H23, log10 concentration −5.0
[13] = NCI-H23, log10 concentration −6.0
[14] = NCI-H23, log10 concentration −7.0
[15] = NCI-H23, log10 concentration −8.0
[16] = NCI-H522, log10 concentration −4.0
[17] = NCI-H522, log10 concentration −5.0
[18] = NCI-H522, log10 concentration −6.0
[19] = NCI-H522, log10 concentration −7.0
[20] = NCI-H522, log10 concentration −8.0
[21] = SF-268, log10 concentration −4.0
[22] = SF-268, log10 concentration −5.0
[23] = SF-268, log10 concentration −6.0
[24] = SF-268, log10 concentration −7.0
[25] = SF-268, log10 concentration −8.0
[26] = SF-539, log10 concentration −4.0
[27] = SF-539, log10 concentration −5.0
[28] = SF-539, log10 concentration −6.0
[29] = SF-539, log10 concentration −7.0
[30] = SF-539, log10 concentration −8.0
[31] = SK-MEL-28, log10 concentration −4.0
[32] = SK-MEL-28, log10 concentration −5.0
[33] = SK-MEL-28, log10 concentration −6.0
[34] = SK-MEL-28, log10 concentration −7.0
[35] = SK-MEL-28, log10 concentration −8.0
[36] = UACC-257, log10 concentration −4.0
[37] = UACC-257, log10 concentration −5.0
[38] = UACC-257, log10 concentration −6.0
[39] = UACC-257, log10 concentration −7.0
[40] = UACC-257, log10 concentration −8.0
[41] = UACC-62, log10 concentration −4.0
[42] = UACC-62, log10 concentration −5.0
[43] = UACC-62, log10 concentration −6.0
[44] = UACC-62, log10 concentration −7.0
[45] = UACC-62, log10 concentration −8.0
[46] = OVCAR-5, log10 concentration −4.0
[47] = OVCAR-5, log10 concentration −5.0
[48] = OVCAR-5, log10 concentration −6.0
[49] = OVCAR-5, log10 concentration −7.0
[50] = OVCAR-5, log10 concentration −8.0
[51] = DU-145, log10 concentration −4.0
[52] = DU-145, log10 concentration −5.0
[53] = DU-145, log10 concentration −6.0
[54] = DU-145, log10 concentration −7.0
[55] = DU-145, log10 concentration −8.0

CC(C)c1cnn2c(NCc3ccccc3)cc(N[C@@H](CO)[C@H](O)CO)nc12 [ICEC0318, (3S)-3-(7-(Benzylamino)-3-isopropylpyrazolo[1,5-a]pyrimidin-5-ylamino)butane-1,2,4-triol]
TGI (MOLT-4; MOLT-4 (Leukemia)): >1.00E−4
Mean Optical Densities (MOLT-4; [7]): 0.449
Percent Growth (MOLT-4; [7]): 15%
Mean Optical Densities (MOLT-4; MOLT-4, log10 concentration −5.0): 0.329
Mean Optical Densities (MOLT-4; [8]): 0.368
Percent Growth (MOLT-4; [8]): 5%
Mean Optical Densities (MOLT-4; [9]): 0.987
Percent Growth (MOLT-4; [9]): 82%
Mean Optical Densities (MOLT-4; [10]): 1.072
Percent Growth (MOLT-4; [10]): 92%
TGI (NCI-H23; NCI-H23 (Non-Small Cell Lung Cancer)): >1.00E−4
Mean Optical Densities (NCI-H23; [11]): 0.562
Percent Growth (NCI-H23; [11]): 1%
Mean Optical Densities (NCI-H23; [12]): 0.563
Percent Growth (NCI-H23; [12]): 1%
Mean Optical Densities (NCI-H23; [13]): 0.633
Percent Growth (NCI-H23; [13]): 6%
Mean Optical Densities (NCI-H23; [14]): 1.639
Percent Growth (NCI-H23; [14]): 81%
Mean Optical Densities (NCI-H23; [15]): 1.802
Percent Growth (NCI-H23; [15]): 93%
TGI (NCI-H522; NCI-H522 (Non-Small Cell Lung Cancer)): 2.13E−6
Mean Optical Densities (NCI-H522; [16]): 0.741
Percent Growth (NCI-H522; [16]): −17%
Mean Optical Densities (NCI-H522; [17]): 0.640
Percent Growth (NCI-H522; [17]): −29%
Mean Optical Densities (NCI-H522; [18]): 1.075
Percent Growth (NCI-H522; [18]): 14%
Mean Optical Densities (NCI-H522; [19]): 2.156
Percent Growth (NCI-H522; [19]): 99%
Mean Optical Densities (NCI-H522; [20]): 2.185
Percent Growth (NCI-H522; [20]): 101%
TGI (SF-268; SF-268 (CNS Cancer)): 3.12E−5
Mean Optical Densities (SF-268; [21]): 0.404
Percent Growth (SF-268; [21]): −5%
Mean Optical Densities (SF-268; [22]): 0.460
Percent Growth (SF-268; [22]): 5%
Mean Optical Densities (SF-268; [23]): 0.452
Percent Growth (SF-268; [23]): 4%
Mean Optical Densities (SF-268; [24]): 1.234
Percent Growth (SF-268; [24]): 99%
Mean Optical Densities (SF-268; [25]): 1.291
Percent Growth (SF-268; [25]): 106%
TGI (SF-539 [1]; SF-539 (CNS Cancer)): 5.81E−7
Mean Optical Densities (SF-539 [1]; [26]): 0.138
Percent Growth (SF-539 [1]; [26]): −81%
Mean Optical Densities (SF-539 [1]; [27]): 0.327
Percent Growth (SF-539 [1]; [27]): −55%
Mean Optical Densities (SF-539 [1]; [28]): 0.540
Percent Growth (SF-539 [1]; [28]): −25%
Mean Optical Densities (SF-539 [1]; [29]): 1.950
Percent Growth (SF-539 [1]; [29]): 82%
Mean Optical Densities (SF-539 [1]; [30]): 2.183
Percent Growth (SF-539 [1]; [30]): 98%
TGI (SK-MEL-28; SK-MEL-28 (Melanoma)): 8.70E−7
Mean Optical Densities (SK-MEL-28; [31]): 0.114
Percent Growth (SK-MEL-28; [31]): −62%
Mean Optical Densities (SK-MEL-28; [32]): 0.198
Percent Growth (SK-MEL-28; [32]): −34%
Mean Optical Densities (SK-MEL-28; [33]): 0.284
Percent Growth (SK-MEL-28; [33]): −6%
Mean Optical Densities (SK-MEL-28; [34]): 0.733
Percent Growth (SK-MEL-28; [34]): 85%
Mean Optical Densities (SK-MEL-28; [35]): 0.816
Percent Growth (SK-MEL-28; [35]): 102%
TGI (UACC-257 [2]; UACC-257 (Melanoma)): 3.88E−5
Mean Optical Densities (UACC-257 [2]; [36]): 0.848
Percent Growth (UACC-257 [2]; [36]): −4%
Mean Optical Densities (UACC-257 [2]; [37]): 0.933
Percent Growth (UACC-257 [2]; [37]): 5%
Mean Optical Densities (UACC-257 [2]; [38]): 0.948
Percent Growth (UACC-257 [2]; [38]): 7%
Mean Optical Densities (UACC-257 [2]; [39]): 1.891
Percent Growth (UACC-257 [2]; [39]): 100%
Mean Optical Densities (UACC-257 [2]; [40]): 1.906
Percent Growth (UACC-257 [2]; [40]): 102%
TGI (UACC-62; UACC-62 (Melanoma)): 3.16E−7
Mean Optical Densities (UACC-62; [41]): 0.078
Percent Growth (UACC-62; [41]): −90%
Mean Optical Densities (UACC-62; [42]): 0.165
Percent Growth (UACC-62; [42]): −78%
Mean Optical Densities (UACC-62; [43]): 0.142
Percent Growth (UACC-62; [43]): −81%
Mean Optical Densities (UACC-62; [44]): 1.821
Percent Growth (UACC-62; [44]): 81%
Mean Optical Densities (UACC-62; [45]): 2.110
Percent Growth (UACC-62; [45]): 102%
TGI (OVCAR-5; OVCAR-5 (Ovarian Cancer)): >1.00E−4
Mean Optical Densities (OVCAR-5; [46]): 0.618
Percent Growth (OVCAR-5; [46]): 10%
Mean Optical Densities (OVCAR-5; [47]): 0.688
Percent Growth (OVCAR-5; [47]): 19%
Mean Optical Densities (OVCAR-5; [48]): 0.665
Percent Growth (OVCAR-5; [48]): 16%
Mean Optical Densities (OVCAR-5; [49]): 1.165
Percent Growth (OVCAR-5; [49]): 82%
Mean Optical Densities (OVCAR-5; [50]): 1.211
Percent Growth (OVCAR-5; [50]): 88%
TGI (DU-145 [3]; DU-145 (Prostate Cancer)): >1.00E−4
Mean Optical Densities (DU-145 [3]; [51]): 0.204
Percent Growth (DU-145 [3]; [51]): 3%
Mean Optical Densities (DU-145 [3]; [52]): 0.250
Percent Growth (DU-145 [3]; [52]): 12%
Mean Optical Densities (DU-145 [3]; [53]): 0.277
Percent Growth (DU-145 [3]; [53]): 17%
Mean Optical Densities (DU-145 [3]; [54]): 0.688
Percent Growth (DU-145 [3]; [54]): 95%
Mean Optical Densities (DU-145 [3]; [55]): 0.732
Percent Growth (DU-145 [3]; [55]): 103%
GI50 (HOP-62; HOP-62): 243 nM
CC50 (HOP-62; HOP-62, read-out: LC50): > 100000 nM
GI50 (SF-539 [4]; SF-539): 199 nM
CC50 (SF-539 [4]; SF-539, read-out: LC50): 6850 nM
GI50 (U251; U-251): 261 nM
CC50 (U251; U-251, read-out: LC50): > 100000 nM
GI50 (UACC-257 [5]; UACC-257): 344 nM
CC50 (UACC-257 [5]; UACC-257, read-out: LC50): > 100000 nM
GI50 (A498; A498): 235 nM
CC50 (A498; A498, read-out: LC50): 993 nM
GI50 (CAKI-1; CAKI-1): 249 nM
CC50 (CAKI-1; CAKI-1, read-out: LC50): > 100000 nM
GI50 (RXF 393; RXF 393): 213 nM
CC50 (RXF 393; RXF 393, read-out: LC50): 54600 nM
GI50 (PC-3; PC-3): 314 nM
CC50 (PC-3; PC-3, read-out: LC50): > 100000 nM
GI50 (DU-145 [6]; DU-145): 377 nM
CC50 (DU-145 [6]; DU-145, read-out: LC50): > 100000 nM
